The text below walks through data of patent US11149020B2, “MAP kinase modulators and uses thereof” (The Trustees of Columbia University in the City of New York, priority 2013, dated 2021).

Assay [1] has as its target CK-1δ (Homo sapiens (Human), UniProt P48730). As to the kind of experiment: Kinase assay, concentration dependent inhibition of CK-1δ.
Assay [2] addresses human p38α MAPK (Homo sapiens (Human), UniProt Q16539). The assay can be described thus: Kinase assay, concentration dependent inhibition of p38α MAPK. In kind it is biochemical. To be noted: for Ki: kinetic analyses.
In assay [3] the test system is APP/PS1 mice. As to the kind of experiment: LTP in APP/PS1 mice. The note with it: 2.5 mg/kg, daily, p.o., from 2 months until 3-4 months of age. The assay is classed as in vivo, mouse.
The test system of assay [4] is APP/PS1 mice. The assay can be described thus: Fear conditioning (contextual and cued) in APP/PS1 mice. The note with it: 2.5 mg/kg, daily, p.o., from 2 months of age.
The test system of assay [5] is APP/PS1 mice. As to the kind of experiment: RAWM in APP/PS1 mice. The note with it: 2.5 mg/kg, daily, p.o., from 2 months of age.

Molecules are shown by their SMILES. Read-outs that look alike come from different tables or passages of the source.

Sequence of CK-1δ (P48730 whole entry): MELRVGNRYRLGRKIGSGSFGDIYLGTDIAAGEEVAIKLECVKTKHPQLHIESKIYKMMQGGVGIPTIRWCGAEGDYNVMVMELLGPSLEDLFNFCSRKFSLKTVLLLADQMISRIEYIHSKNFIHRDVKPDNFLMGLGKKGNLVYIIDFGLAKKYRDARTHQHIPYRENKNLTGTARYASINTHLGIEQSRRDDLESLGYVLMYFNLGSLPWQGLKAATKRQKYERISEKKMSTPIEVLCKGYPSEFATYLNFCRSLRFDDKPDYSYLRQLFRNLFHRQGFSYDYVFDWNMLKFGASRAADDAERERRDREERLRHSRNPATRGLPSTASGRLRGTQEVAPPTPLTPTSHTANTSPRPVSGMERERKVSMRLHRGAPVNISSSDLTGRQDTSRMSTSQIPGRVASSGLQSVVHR
Sequence of human p38α MAPK (Q16539 whole entry): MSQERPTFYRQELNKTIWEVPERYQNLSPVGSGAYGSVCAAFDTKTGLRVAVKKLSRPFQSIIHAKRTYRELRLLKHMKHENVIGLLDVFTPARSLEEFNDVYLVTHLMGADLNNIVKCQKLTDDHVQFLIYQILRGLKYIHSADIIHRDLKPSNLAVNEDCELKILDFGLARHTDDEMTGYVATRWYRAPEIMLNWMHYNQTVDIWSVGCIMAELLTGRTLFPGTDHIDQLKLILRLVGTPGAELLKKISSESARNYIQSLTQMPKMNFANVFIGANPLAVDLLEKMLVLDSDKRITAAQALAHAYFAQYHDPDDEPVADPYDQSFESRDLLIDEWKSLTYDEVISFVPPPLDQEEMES

Turning to `CN1CCN(c2cc(-c3ccncc3)c(-c3cc(F)cc4ccccc34)nn2)CC1` [53 (MW-059), 3-(3-fluoronaphthalen-1-yl)-6-(4-methylpiperazin-1-yl)-4-(pyridin-4-yl)pyridazine], the figures for the concentration for half-maximal inhibition (IC50) in assay [1] (read-out: Ck1δ IC50) and in assay [2] were 119 µM and above 20 µM, respectively.
The like results for `CCN1CCN(c2cc(-c3ccncc3)c(-c3ccc4ccccc4c3)nn2)CC1` [62 (MW-026), 6-(4-ethylpiperazin-1-yl)-3-(naphthalen-2-yl)-4-(pyridin-4-yl)pyridazine] were, in that order, 4.99 µM and 0.52 µM.
`CN1CCN(c2cc(-c3ccncc3)c(-c3cccc4cc(F)ccc34)nn2)CC1` [54 (MW-197), 3-(6-fluoronaphthalen-1-yl)-6-(4-methylpiperazin-1-yl)-4-(pyridin-4-yl)pyridazine]: the IC50 – broadly, the concentration that inhibits the measured activity by half – amounted to 136 µM in assay [1] (read-out: Ck1δ IC50) and 0.669 µM in assay [2].
The like results for `CN1CCN(c2cc(-c3ccncc3F)c(-c3ccc4ccccc4c3)nn2)CC1` [37 (MW-149), 4-(3-fluoropyridin-4-yl)-6-(4-methylpiperazin-1-yl)-3-(naphthalen-2-yl)pyridazine] were, in that order, 4.62 µM and 0.235 µM.
Regarding `CN(C)c1cc(-c2ccncc2)c(-c2ccc3[nH]ccc3c2)nn1` [22 (MW-066), 6-(1H-indol-5-yl)-N,N-dimethyl-5-(pyridin-4-yl)pyridazin-3-amine], the IC50 in assay [1] (read-out: Ck1δ IC50) was found to be 4.28 µM; in assay [2] it was 0.369 µM.
The like results for `CC(C)Nc1cc(-c2ccncc2)c(-c2cccc3ccccc23)nn1` [25 (MW-031), N-isopropyl-6-(naphthalen-1-yl)-5-(pyridin-4-yl)pyridazin-3-amine] were, in that order, above 10 µM and 0.162 µM.
As to `CNc1cc(-c2ccncc2)c(-c2ccc3ccccc3c2)nn1` [16 (MW-200), N-methyl-6-(naphthalen-2-yl)-5-(pyridin-4-yl)pyridazin-3-amine], the figures for the IC50 in assay [1] (read-out: Ck1δ IC50) and in assay [2] were 4.98 µM and 0.175 µM, respectively. In assay [2], the affinity, expressed as Ki, was 0.1 µM.
As to `CN1CCN(c2cc(-c3ccncc3)c(-c3ccc4cccc(F)c4c3)nn2)CC1` [52 (MW-032), 3-(8-Fluoronaphthalen-2-yl)-6-(4-methylpiperazin-1-yl)-4-(pyridin-4-yl)pyridazine], the half-maximal inhibitory concentration (IC50) in assay [1] (read-out: Ck1δ IC50) is 17.9 µM; in assay [2], 0.735 µM.
The like results for `c1cc(-c2nnc(N3CCNCC3)cc2-c2ccncc2)c2cc[nH]c2c1` [30 (MW-126), 4-(6-(piperazin-1-yl)-4-(pyridin-4-yl)pyridazin-3-yl)-1H-indole] were, in that order, 2.63 µM and 0.753 µM.
Regarding `CN1CCN(c2cc(-c3ccncc3)c(-c3ccc4ccc(F)cc4c3)nn2)CC1` [50 (MW-017), 3-(7-Fluoronaphthalen-2-yl)-6-(4-methylpiperazin-1-yl)-4-(pyridin-4-yl)pyridazine], the IC50 in assay [1] (read-out: Ck1δ IC50) was found to be 16.8 µM; in assay [2], 0.974 µM.
Turning to `c1ccc2c(-c3nnc(C4CC4)cc3-c3ccncc3)cccc2c1` [7 (MW-077), 6-cyclopropyl-3-(naphthalen-1-yl)-4-(pyridin-4-yl)pyridazine], the “LTP defect in APP/PS1 mice” value in assay [3] is recorded as “rescue defects in LTP”. The “contextual fear memory defect in APP/PS1 mice” value in assay [4] was “rescue the defect in contextual fear learning”. Moreover, in assay [1] (read-out: Ck1δ IC50), the IC50 was above 10 µM. Further, the “spatial/reference memory defect (RAWM) in APP/PS1 mice” value in assay [5] is reported as “rescue defects in spatial memory”. In assay [2], the IC50 amounted to 0.419 µM and the affinity, expressed as Ki, was 0.186 µM.
Take `Fc1cnccc1-c1cc(C2CC2)nnc1-c1ccc2ccccc2c1` [10 (MW-167), 6-Cyclopropyl-4-(3-fluoropyridin-4-yl)-3-(naphthalen-2-yl)pyridazine]: the results for the IC50 in assay [1] (read-out: Ck1δ IC50) and in assay [2] were above 10 µM and 0.307 µM, respectively. Moreover, in assay [2], affinity was put at a Ki of 0.086 µM.
In the case of `CCCN(C)c1cc(-c2ccncc2)c(-c2cccc3ccccc23)nn1` [24 (MW-010), N-methyl-6-(naphthalen-1-yl)-N-propyl-5-(pyridin-4-yl)pyridazin-3-amine], the IC50 in assay [1] is above 10 µM; in assay [2], 0.188 µM.
Turning to `CN1CCN(c2cc(-c3ccncc3)c(-c3cccc4c(F)cccc34)nn2)CC1` [55 (MW-063), 3-(5-fluoronaphthalen-1-yl)-6-(4-methylpiperazin-1-yl)-4-(pyridin-4-yl)pyridazine], the figures for the IC50 in assay [1] (read-out: Ck1δ IC50) and in assay [2] were 32.5 µM and 0.526 µM, respectively.
As to `c1ccc2cc(-c3nnc(C4CC4)cc3-c3ccncc3)ccc2c1` [9 (MW-125), 6-Cyclopropyl-4-(pyridin-4-yl)-3-(naphthalen-2-yl)pyridazine], in assay [3], the “LTP defect in APP/PS1 mice” value is on record as “rescue defects in LTP”. For the same compound, in assay [4], the “contextual fear memory defect in APP/PS1 mice” value is given as “rescue the defect in contextual fear learning”. The IC50 in assay [1] (read-out: Ck1δ IC50) is above 10 µM. Besides, the “spatial/reference memory defect (RAWM) in APP/PS1 mice” value in assay [5] is recorded as “rescue defects in spatial memory”. Also, in assay [2], the midpoint of inhibition, the IC50, lay at 0.412 µM and the Ki – broadly, a dissociation constant, usually derived from enzyme kinetics or from competition with a known ligand – is 0.127 µM.
Consider `CN(C)c1cc(-c2ccncc2)c(-c2ccc(F)c3ccccc23)nn1` [17 (MW-078), 6-(4-fluoronaphthalen-1-yl)-N,N-dimethyl-5-(pyridin-4-yl)pyridazin-3-amine], for which the IC50 in assay [1] (read-out: Ck1δ IC50) was above 10 µM; in assay [2], 1.78 µM.
Consider `CN1CCC(c2cc(-c3ccncc3)c(-c3ccc4ccccc4c3)nn2)CC1` [36 (MW-164), 6-(1-methylpiperidin-4-yl)-3-(naphthalen-2-yl)-4-(pyridin-4-yl)pyridazine], for which the IC50 in assay [1] was 11.2 µM. Also, in assay [2], the IC50 turned out to be 0.224 µM and the Ki was found to be 0.101 µM.
As for `c1ccc2c(-c3nnc(NC4CC4)cc3-c3ccncc3)cccc2c1` [13 (MW-107), N-cyclopropyl-6-(naphthalen-1-yl)-5-(pyridin-4-yl)pyridazin-3-amine], the half-maximal inhibitory concentration (IC50) in assay [1] (read-out: Ck1δ IC50) is above 10 µM. In assay [2], the concentration for half-maximal inhibition (IC50) came out at 0.264 µM and the Ki turned out to be 0.091 µM.
For `CN(C)c1cc(-c2ccncc2)c(-c2cccc3cnccc23)nn1` [20 (MW-082), 6-(isoquinolin-5-yl)-N,N-dimethyl-5-(pyridin-4-yl)pyridazin-3-amine], the values for the half-inhibitory concentration (IC50) in assay [1] (read-out: Ck1δ IC50) and in assay [2] were above 10 µM and above 3.2 µM, respectively.
As to `CN1CCN(c2cc(-c3ccncc3F)c(-c3cccc4ccccc34)nn2)CC1` [14 (MW-109), 4-(3-fluoropyridin-4-yl)-6-(4-methylpiperazin-1-yl)-3-(naphthalen-1-yl)pyridazine], the half-maximal inhibitory concentration (IC50) was above 10 µM in assay [1] (read-out: Ck1δ IC50) and 0.131 µM in assay [2].
The like results for `CN1CCN(c2cc(-c3ccncc3)c(-c3cccc4[nH]ccc34)nn2)CC1` [29 (MW-108), 4-(6-(4-methylpiperazin-1-yl)-4-(pyridin-4-yl)pyridazin-3-yl)-1H-indole] were, in that order, 6.13 µM and 3.07 µM.
In assay [2], `CN(C)c1cc(-c2ccncc2)c(-c2cccc3ccc(F)cc23)nn1` [18 (MW-085), 6-(7-fluoronaphthalen-1-yl)-N,N-dimethyl-5-(pyridin-4-yl)pyridazin-3-amine] came in with an IC50 of 1.17 µM.
As for `CC(C)Nc1cc(-c2ccncc2)c(-c2ccc3ccccc3c2)nn1` [26 (MW-025), N-isopropyl-6-(naphthalen-2-yl)-5-(pyridin-4-yl)pyridazin-3-amine], the IC50 in assay [1] (read-out: Ck1δ IC50) is 2.62 µM; in assay [2], 0.13 µM.
`CNc1cc(-c2ccncc2)c(-c2cccc3ccccc23)nn1` [15 (MW-156), N-methyl-6-(naphthalen-1-yl)-5-(pyridin-4-yl)pyridazin-3-amine]: in assay [1] (read-out: Ck1δ IC50), the IC50 was above 10 µM. In addition, in assay [2], the IC50 amounted to 0.289 µM and the Ki amounted to 0.276 µM.
In assay [2], `COc1ccc2ccccc2c1-c1nnc(N(C)C)cc1-c1ccncc1` [19 (MW-155), 6-(2-methoxynaphthalen-1-yl)-N,N-dimethyl-5-(pyridin-4-yl)pyridazin-3-amine] yielded an IC50 above 1.6 µM.
Still for that read-out and setting: the same measure for `c1ccc2cc(-c3nnc(N4CCOCC4)cc3-c3ccncc3)ccc2c1` [33 (MW-152), 4-(6-(naphthalen-2-yl)-5-(pyridin-4-yl)pyridazin-3-yl)morpholine]: 0.481 µM.
`CN(C)c1cnc(-c2cccc3ccccc23)c(-c2ccncc2)n1` [44 (MW-064), N,N-dimethyl-5-(naphthalen-1-yl)-6-(pyridin-4-yl)pyrazin-2-amine]: the IC50 in assay [1] (read-out: Ck1δ IC50) was above 10 µM. In assay [2], this compound had a concentration for half-maximal inhibition (IC50) of 0.456 µM and a Ki of 0.343 µM.
With `c1ccc2c(-c3nnc(N4CCCCC4)cc3-c3ccncc3)cccc2c1` [12 (MW-124), 3-(naphthalen-1-yl)-6-(piperidin-1-yl)-4-(pyridin-4-yl)pyridazine], the IC50 in assay [1] (read-out: Ck1δ IC50) was above 10 µM; in assay [2] it was 0.191 µM.
The like results for `CCN(CC)c1cc(-c2ccncc2)c(-c2cccc3ccccc23)nn1` [23 (MW-033), N,N-diethyl-6-(naphthalen-1-yl)-5-(pyridin-4-yl)pyridazin-3-amine] were, in that order, above 10 µM and 0.162 µM.
In the case of `CN1CCN(c2cc(-c3ccncc3)c(-c3cccc4ccccc34)nn2)CC1` [11 (MW-122), 6-(4-methylpiperazin-1-yl)-3-(naphthalen-1-yl)-4-(pyridin-4-yl)pyridazine], the results for the IC50 in assay [1] (read-out: Ck1δ IC50) and in assay [2] were above 10 µM and 0.185 µM, respectively. Moreover, the affinity in assay [2], expressed as Ki, was 0.098 µM.
Regarding `c1ccc2cc(-c3nnc(NC4CC4)cc3-c3ccncc3)ccc2c1` [35 (MW-153), N-cyclopropyl-6-(naphthalen-2-yl)-5-(pyridin-4-yl)pyridazin-3-amine], 0.189 µM corresponded to half-maximal inhibition in assay [2] (IC50).
On the same count and under the same terms, for `CN(C)c1cc(-c2ccncc2)c(-c2cc(F)cc3cccnc23)nn1` [21 (MW-165), 6-(6-fluoroquinolin-8-yl)-N,N-dimethyl-5-(pyridin-4-yl)pyridazin-3-amine] the value was above 1.6 µM.
